# From article PMC9138090, “Study on the Neuroprotective, Radical-Scavenging and MAO-B Inhibiting Properties of New Benzimidazole Arylhydrazones as Potential Multi-Target Drugs for the Treatment of Parkinson’s Disease” (Antioxidants, 2022)
# “Also recorded” adds a separate entry of the source.
# Key:
# [1] = Superoxide scavenging, non-enzymatic KO2/NBT assay; conditions: 100 µM; text says enzymatic assay
# Experimental: Superoxide radicals scavenging activity (non-enzymatic assay): 1 mL PBS, pH 7.4 contains 0.04 mmol/L NBT and the tested hydrazone in the concentrations indicated on the figures. No drug was added to the control samples. One minute after the addition of 20 μL of KO2 dissolved in DMSO, the absorbance at 560 nm was measured.
# The results from both assays have been presented as a percentage of the control sample.
# The potency of the compounds selected as the most promising from the cell model systems and hMAOB inhibitory studies was estimated against enzymatically (xanthine/XO system) and non-enzymatically (KO2/NBT) produced superoxide radicals (Figure 7). In the xanthine-xanthine oxidase system the generation of O2^−^● is a result of an enzymatic reaction. The molecular mechanism of action of the XO enzyme is associated with catalysation of the reaction of oxidation of hypoxanthine and xanthine and generation of uric acid. During the process of reoxidation of the enzyme, the molecular oxygen acts as an electron acceptor and the formation of physiologically important ROS, such as the superoxide radical (O2^−^●) and hydrogen peroxide (H2O2), has been observed. In the potassium superoxide-containing systems, superoxide radical generation is due to the direct addition of the KO2 to the water sample solution. […]
# [2] = Fe(II)-induced oxidative damage of lecithin (TBA-RS); conditions: 90 µmol/L
# Experimental: (§1) The classical method of determining the TBA-reactive substances at 532 nm as described by Asakawa and Matsushita has been used. Two groups of measurement compositions named controls and samples were prepared in phosphate buffer (K2HPO4/KH2PO4, pH 7.4) for each of the used substrates. Both of them contained equivalent concentrations of lecithin (1 mg/mL) or 2-deoxyribose (0.5 mmol/L) and FeCl2 (0.1 mmol/L). In the controls, the tested hydrazones have been omitted and in the samples the effect of the newly designed compounds at the concentrations indicated below the figures has been determined. The obtained samples were incubated at 37 °C for 30 min. The reaction was stopped, and after adding 0.5 mL 2.8% trichloroacetic acid and 0.5 mL of thiobarbituric acid, the samples were heated in boiling water for 20 min. The lecithin containing samples were centrifuged at 3000 rpm for 20 min and the supernatant was aspired out. The results have been presented as a percentage of the control sample, treated only with ferrous iron where we expected maximum oxidative damage under the described conditions.
# SH-SY5Y cells = test: H2O2-induced oxidative stress model in SH-SY5Y cells; type: cell-based, human; conditions: for cell viability protection vs. H2O2-treatment: 50 µM, 90 min pre-incubation, H2O2 1 mM 15 min; for protective effect in H2O2-induced oxidative stress model (in words): 1, 10, 50 µM
# Experimental: SH-SY5Y cells were seeded in 96-well plates at a density of 3.5 × 10^4/well and allowed to attach at the wells’ bottom overnight. […] Afterwards, the SH-SY5Y cells were washed with phosphate-buffered saline (PBS) to remove the extracellular amount of the test compounds. […] Then, the contents of all wells were changed with culture medium. After 24 h, the amount of attached viable cells was evaluated by MTT assay. […] Rasagiline and melatonin (Sigma-Aldrich Chemie GmbH) were used as reference compounds because of their well-established neuroprotective activity. […] The toxic mechanisms of hydrogen peroxide include the generation of reactive hydroxyl radicals and formation of products which could damage cellular lipids, proteins and DNA. […] For comparison, the effects of two compounds with well established antioxidant activity—rasagiline and melatonin—were also evaluated.
# rat brain synaptosomes = test: 6-OHDA-induced neurotoxicity, GSH level; type: cell-based; conditions: 10 µM pretreatment, 6-OHDA 150 mmol/L 1 h
# Experimental: Synaptosomes were prepared from brains of adult male Wistar rats. The brains were homogenized in 10 volume of cold buffer 1, containing 5 mM HEPES and 0.32 M sucrose (pH = 7.4). The brain homogenate was centrifuged twice at 1000× g for 5 min at 4 °C. The supernatant was collected and centrifuged 3 times at 10,000× g for 20 min at 4 °C. The pellet was re-suspended in ice-cold buffer 1. The synaptosomes were isolated by using Percoll reagent to prepare the gradient. Synaptosomes were re-suspended and incubated in buffer 2, containing 290 mM NaCl, 0.95 mM MgCl2 × 6H2O, 10 mM KCl, 2.4 mM CaCl2 × H2O, 2.1 mM NaH2PO4, 44 mM HEPES, and 13 mM D-glucose. Incubations were performed in a 5% CO2 + 95% O2 atmosphere. The content of synaptosomal protein was determined according to the method of Lowry et al. using bovine serum albumin as a standard.
# The metabolism and oxidation of dopamine cause reactive oxygen radicals and reactive quinones to be produced, which could lead to neurotoxicity and neurodegeneration. The synaptosomes were incubated with the compounds (10 µM) for 30 min and then 6-hydroxydopamnine (150 mmol/L) was used to induce neurotoxicity. […] After 1 h, they were centrifuged on a microcentrifuge for 1 min at 15,000 rpm. The precipitates were gently mixed with buffer B and glucose and centrifuged for a second time at 15,000 rpm for 1 min. After the second wash, buffer B and glucose were added to the precipitates.
# In the presented experiments, an in vitro assessment of the possible antioxidant and neuroprotective effects of the newly synthetized compounds was performed in a model of 6-OHDA induced toxicity in rat brain synaptosomes. 6-OHDA is a neurotoxicant that structurally resembles dopamine and can be used in different in vivo and in vitro models for neurotoxicity. This model resembles the histological, biochemical, and physiological characteristics of neurodegenerative diseases such as Parkinson’s and Alzheimer’s disease. […] However, their uptake into brain synaptosomes is similar among primates and rodents and they are suitable in vitro models for PD. The main mechanism of 6-OHDA toxicity includes induction of oxidative stress. It undergoes auto-oxidation or metabolic degradation to p-quinone and produces hydrogen peroxide, superoxide, and hydroxyl radicals. The process causes lipid peroxidation, protein oxidation, and DNA oxidation and finally results in oxidative stress and mitochondrial dysfunction. Rat brain synaptosomes were pretreated with compounds 3e, 3h, 3i, 3m, melatonin, and rasagiline (10 μM); after that, the samples were subjected to 6-OHDA (150 mmol/L, 1 h). The protective effects were evaluated by measurement of synaptosomal viability (MTT-test) and GSH levels (Figure 3).
# [3] = Fe(II)-induced degradation of 2-deoxyribose (TBA-RS); conditions: 80 µmol/L, 2-deoxyribose 0.5 mmol/L
# Experimental: as §1
SMILES,increase of absorbance compared to the controls [1] [times],lecithin peroxidation effect compared with 3a (in words) [2],cell viability protection vs. H2O2-treatment (SH-SY5Y cells) [%],protective effect in H2O2-induced oxidative stress model (in words) (SH-SY5Y cells),"sample/control absorbance ratio (% of the control), lecithin peroxidation ([2]; lecithin 1 mg/mL, FeCl2 0.1 mmol/L)",restoration of GSH level vs. 6-OHDA treatment (rat brain synaptosomes) [%],antioxidant effect on Fe(II) induced deoxyribose degradation (in words) [3]
"O=C(CCn1c(=S)n(CCC(=O)NN=Cc2ccc(O)cc2O)c2ccccc21)NN=Cc1ccc(O)cc1O [3i, 3,3′-(2-Thioxo-1H-benzo[d]imidazole-1,3(2H)-diyl)bis(N′-(2,4-dihydroxybenzylidene)propanehydrazide)]",2.5,statistically identical effect to 3a,80,even more pronounced than those of melatonin and rasagiline,–,–,–
"O=C(CCn1c(=S)n(CCC(=O)NN=Cc2ccccc2O)c2ccccc21)NN=Cc1ccccc1O [3e, 3,3′-(2-Thioxo-1H-benzo[d]imidazole-1,3(2H)-diyl)bis(N′-(2-hydroxybenzylidene)propanehydrazide)]",1.5,–,–,–,–,–,–
"O=C(CCn1c(=S)n(CCC(=O)NN=Cc2cccc(O)c2O)c2ccccc21)NN=Cc1cccc(O)c1O [3h, 3,3′-(2-Thioxo-1H-benzo[d]imidazole-1,3(2H)-diyl)bis(N′-(2,3-dihydroxybenzylidene)propanehydrazide)]",–,–,79,even more pronounced than those of melatonin and rasagiline,around 40%,62,"stronger than the reference melatonin and similar to Trolox; also recorded: better protection effect than the reference melatonin, and a similar effect to the antioxidant Trolox"
